From patent publication US20060009478A1, “Methods for the treatment of back pain” (priority 2003, published 2006)
Read-outs that look alike come from different tables or passages of the source.

Legend:
[1] = test system: patients with moderate to severe chronic low back pain; assay: AE days and average AE days of opioid associated AEs, low back pain study; conditions: ITT population
[2] = test system: patients with moderate to severe chronic pain due to osteoarthritis of the hip or knee
[3] = test system: patients with moderate to severe chronic low back pain; assay: Dose analysis (average titration dose, fixed dose, study drug dose of opioid agonist), low back pain study
[4] = (total days with AE)/(days on study drug)
[5] = AE stop date − AE start date + 1
[6] = 3-week study, intent to treat population
[7] = Week 1, Days 1-3: 10 mg OXY/d, Days 4-8: 20 mg OXY/d
[8] = mg of opioid agonist, ITT population

COc1ccc2c3c1O[C@H]1C(=O)CC[C@@]4(O)[C@@H](C2)N(C)CC[C@]314 [OXY QID, oxycodone]
Average AE day for constipation, maximum [1, 4]: (1.13)
Average AE day for constipation, mean [1, 4]: 0.24
Average AE day for constipation, median [1, 4]: 0.05
Average AE day for constipation, minimum [1, 4]: 0.00
Average AE day for dizziness, maximum [1, 4]: 1.73
Average AE day for dizziness, mean (SD) [1, 4]: 0.14 (0.281)
Average AE day for dizziness, median [1, 4]: 0.01
Average AE day for dizziness, minimum [1, 4]: 0.00
Average AE day for nausea, maximum [1, 4]: 2.00
Average AE day for nausea, mean (SD) [1, 4]: 0.14 (0.266)
Average AE day for nausea, median [1, 4]: 0.03
Average AE day for nausea, minimum [1, 4]: 0.00
Average AE day for pruritus, maximum [1, 4]: 2.00
Average AE day for pruritus, mean (SD) [1, 4]: 0.23 (0.355)
Average AE day for pruritus, median [1, 4]: 0.03
Average AE day for pruritus, minimum [1, 4]: 0.00
Average AE day for somnolence, maximum [1, 4]: 2.00
Average AE day for somnolence, mean (SD) [1, 4]: 0.31 (0.392)
Average AE day for somnolence, median [1, 4]: 0.11
Average AE day for somnolence, minimum [1, 4]: 0.00
Average AE day for vomiting, maximum [1, 4]: 1.00
Average AE day for vomiting, mean (SD) [1, 4]: 0.02 (0.087)
Average AE day for vomiting, median [1, 4]: 0.00
Average AE day for vomiting, minimum [1, 4]: 0.00
AE day for constipation, maximum [1, 5]: 114.00
AE day for constipation, mean (SD) [1, 5]: 17.59 (27.733)
AE day for constipation, median [1, 5]: 3.00
AE day for constipation, minimum [1, 5]: 0.00
AE day for dizziness, maximum [1, 5]: 114.00
AE day for dizziness, mean (SD) [1, 5]: 8.59 (18.871)
AE day for dizziness, median [1, 5]: 1.00
AE day for dizziness, minimum [1, 5]: 0.00
AE day for nausea, maximum [1, 5]: 118.00
AE day for nausea, mean (SD) [1, 5]: 8.16 (16.511)
AE day for nausea, median [1, 5]: 2.00
AE day for nausea, minimum [1, 5]: 0.00
AE day for pruritus, maximum [1, 5]: 124.00
AE day for pruritus, mean (SD) [1, 5]: 15.92 (28.817)
AE day for pruritus, median [1, 5]: 2.00
AE day for pruritus, minimum [1, 5]: 0.00
AE day for somnolence, maximum [1, 5]: 123.00
AE day for somnolence, mean (SD) [1, 5]: 21.53 (32.137)
AE day for somnolence, median [1, 5]: 6.00
AE day for somnolence, minimum [1, 5]: 0.00
AE day for vomiting, maximum [1, 5]: 18.00
AE day for vomiting, mean (SD) [1, 5]: 1.09 (2.839)
AE day for vomiting, median [1, 5]: 0.00
AE day for vomiting, minimum [1, 5]: 0.00
Discontinuation of treatment because of adverse event: Any adverse event, % of patients [2, 6]: 28.4%
Discontinuation of treatment because of adverse event: Any adverse event, number of patients [2, 6]: 29
Discontinuation of treatment because of adverse event: Constipation, % of patients [2, 6]: 1.0%
Discontinuation of treatment because of adverse event: Constipation, number of patients [2, 6]: 1
Discontinuation of treatment because of adverse event: Diarrhea, % of patients [2, 6]: 0.0%
Discontinuation of treatment because of adverse event: Diarrhea, number of patients [2, 6]: 0
Discontinuation of treatment because of adverse event: Dizziness, % of patients [2, 6]: 1.0%
Discontinuation of treatment because of adverse event: Dizziness, number of patients [2, 6]: 1
Discontinuation of treatment because of adverse event: Euphoric mood, % of patients [2, 6]: 0.0%
Discontinuation of treatment because of adverse event: Euphoric mood, number of patients [2, 6]: 0
Discontinuation of treatment because of adverse event: Eye disorders, % of patients [2, 6]: 0.0%
Discontinuation of treatment because of adverse event: Eye disorders, number of patients [2, 6]: 0
Discontinuation of treatment because of adverse event: Gastrointestinal disorders, % of patients [2, 6]: 12.7%
Discontinuation of treatment because of adverse event: Gastrointestinal disorders, number of patients [2, 6]: 13
Discontinuation of treatment because of adverse event: General disorders and administration site conditions, % of patients [2, 6]: 2.0%
Discontinuation of treatment because of adverse event: General disorders and administration site conditions, number of patients [2, 6]: 2
Discontinuation of treatment because of adverse event: Headache, % of patients [2, 6]: 2.0%
Discontinuation of treatment because of adverse event: Headache, number of patients [2, 6]: 2
Discontinuation of treatment because of adverse event: Lethargy, % of patients [2, 6]: 0.0%
Discontinuation of treatment because of adverse event: Lethargy, number of patients [2, 6]: 0
Discontinuation of treatment because of adverse event: Nausea, % of patients [2, 6]: 6.9%
Discontinuation of treatment because of adverse event: Nausea, number of patients [2, 6]: 7
Discontinuation of treatment because of adverse event: Nervous system disorders, % of patients [2, 6]: 7.8%
Discontinuation of treatment because of adverse event: Nervous system disorders, number of patients [2, 6]: 8
Discontinuation of treatment because of adverse event: Pruritus, % of patients [2, 6]: 1.0%
Discontinuation of treatment because of adverse event: Pruritus, number of patients [2, 6]: 1
Discontinuation of treatment because of adverse event: Psychiatric disorders, % of patients [2, 6]: 1.0%
Discontinuation of treatment because of adverse event: Psychiatric disorders, number of patients [2, 6]: 1
Discontinuation of treatment because of adverse event: Sedation, % of patients [2, 6]: 2.0%
Discontinuation of treatment because of adverse event: Sedation, number of patients [2, 6]: 2
Discontinuation of treatment because of adverse event: Skin and subcutaneous tissue disorders, % of patients [2, 6]: 2.9%
Discontinuation of treatment because of adverse event: Skin and subcutaneous tissue disorders, number of patients [2, 6]: 3
Discontinuation of treatment because of adverse event: Sommolence, % of patients [2, 6]: 2.0%
Discontinuation of treatment because of adverse event: Sommolence, number of patients [2, 6]: 2
Discontinuation of treatment because of adverse event: Upper abdominal pain, % of patients [2, 6]: 0.0%
Discontinuation of treatment because of adverse event: Upper abdominal pain, number of patients [2, 6]: 0
Discontinuation of treatment because of adverse event: Vomiting, % of patients [2, 6]: 3.9%
Discontinuation of treatment because of adverse event: Vomiting, number of patients [2, 6]: 4
Adverse event Constipation, % of patients [2, 7]: 12.7%
Adverse event Constipation, number of patients [2, 7]: 13
Adverse event Dizziness, % of patients [2, 7]: 16.7%
Adverse event Dizziness, number of patients [2, 7]: 17
Adverse event Dry Mouth, % of patients [2, 7]: 5.9%
Adverse event Dry Mouth, number of patients [2, 7]: 6
Adverse event Fatigue, % of patients [2, 7]: 2.9%
Adverse event Fatigue, number of patients [2, 7]: 3
Adverse event Headache, % of patients [2, 7]: 16.7%
Adverse event Headache, number of patients [2, 7]: 17
Adverse event Nausea, % of patients [2, 7]: 23.5%
Adverse event Nausea, number of patients [2, 7]: 24
Adverse event Pruritus, % of patients [2, 7]: 7.8%
Adverse event Pruritus, number of patients [2, 7]: 8
Adverse event Sommolence, % of patients [2, 7]: 15.7%
Adverse event Sommolence, number of patients [2, 7]: 16
Adverse event Vomiting, % of patients [2, 7]: 3.9%
Adverse event Vomiting, number of patients [2, 7]: 4
Adverse event Constipation, % of patients ([2]; Week 2, 30 mg OXY/d): 7.1%
Adverse event Constipation, number of patients ([2]; Week 2, 30 mg OXY/d): 6
Adverse event Dizziness, % of patients ([2]; Week 2, 30 mg OXY/d): 11.8%
Adverse event Dizziness, number of patients ([2]; Week 2, 30 mg OXY/d): 10
Adverse event Dry Mouth, % of patients ([2]; Week 2, 30 mg OXY/d): 4.7%
Adverse event Dry Mouth, number of patients ([2]; Week 2, 30 mg OXY/d): 4
Adverse event Fatigue, % of patients ([2]; Week 2, 30 mg OXY/d): 0.0%
Adverse event Fatigue, number of patients ([2]; Week 2, 30 mg OXY/d): 0
Adverse event Headache, % of patients ([2]; Week 2, 30 mg OXY/d): 3.5%
Adverse event Headache, number of patients ([2]; Week 2, 30 mg OXY/d): 3
Adverse event Nausea, % of patients ([2]; Week 2, 30 mg OXY/d): 14.1%
Adverse event Nausea, number of patients ([2]; Week 2, 30 mg OXY/d): 12
Adverse event Pruritus, % of patients ([2]; Week 2, 30 mg OXY/d): 5.9%
Adverse event Pruritus, number of patients ([2]; Week 2, 30 mg OXY/d): 5
Adverse event Sommolence, % of patients ([2]; Week 2, 30 mg OXY/d): 7.1%
Adverse event Sommolence, number of patients ([2]; Week 2, 30 mg OXY/d): 6
Adverse event Vomiting, % of patients ([2]; Week 2, 30 mg OXY/d): 3.5%
Adverse event Vomiting, number of patients ([2]; Week 2, 30 mg OXY/d): 3
Adverse event Constipation, % of patients ([2]; Week 3, 40 mg OXY/d): 2.7%
Adverse event Constipation, number of patients ([2]; Week 3, 40 mg OXY/d): 2
Adverse event Dizziness, % of patients ([2]; Week 3, 40 mg OXY/d): 5.3%
Adverse event Dizziness, number of patients ([2]; Week 3, 40 mg OXY/d): 4
Adverse event Dry Mouth, % of patients ([2]; Week 3, 40 mg OXY/d): 0.0%
Adverse event Dry Mouth, number of patients ([2]; Week 3, 40 mg OXY/d): 0
Adverse event Headache, % of patients ([2]; Week 3, 40 mg OXY/d): 8.0%
Adverse event Headache, number of patients ([2]; Week 3, 40 mg OXY/d): 6
Adverse event Nausea, number of patients ([2]; Week 3, 40 mg OXY/d): 8
Adverse event Pruritus, % of patients ([2]; Week 3, 40 mg OXY/d): 4.0%
Adverse event Pruritus, number of patients ([2]; Week 3, 40 mg OXY/d): 3
Adverse event Sommolence, % of patients ([2]; Week 3, 40 mg OXY/d): 2.7%
Adverse event Sommolence, number of patients ([2]; Week 3, 40 mg OXY/d): 2
Adverse event Vomiting, % of patients ([2]; Week 3, 40 mg OXY/d): 12.0%
Adverse event Vomiting, number of patients ([2]; Week 3, 40 mg OXY/d): 9
Patients who discontinued treatment because of adverse events (number) ([2]; of the 360 patients who received study drug, 3-week treatment): 29
Mean study drug dose of oxycodone ([3]; entire study period (titration and fixed-dose), ITT): 39.0 mg
Mean fixed dose of oxycodone ([3]; fixed-dose period, ITT): 57.2 mg
AVERAGE FIXED DOSE, MAXIMUM [3, 8]: 80.0 mg
AVERAGE FIXED DOSE, MEAN (SD) [3, 8]: 57.2 (23.35) MG
AVERAGE FIXED DOSE, MEDIAN [3, 8]: 60.0 mg
AVERAGE FIXED DOSE, MINIMUM [3, 8]: 10.0 mg
AVERAGE STUDY DRUG DOSE, MAXIMUM [3, 8]: 67.8 mg
AVERAGE STUDY DRUG DOSE, MEAN (SD) [3, 8]: 39.0 (19.87) MG
AVERAGE STUDY DRUG DOSE, MEDIAN [3, 8]: 35.6 mg
AVERAGE STUDY DRUG DOSE, MINIMUM [3, 8]: 10.0 mg
AVERAGE TITRATION DOSE, MAXIMUM [3, 8]: 42.3 mg
AVERAGE TITRATION DOSE, MEAN (SD) [3, 8]: 24.2 (8.22) MG
AVERAGE TITRATION DOSE, MEDIAN [3, 8]: 25.9 mg
AVERAGE TITRATION DOSE, MINIMUM [3, 8]: 0.0 mg
Opioid drug dose required to achieve comparable pain relief ([3]; per day, p<0.05): approximately 39 mg
Mean titration dose of oxycodone ([3]; titration period, ITT): 24.2 mg
